# Reference: ChEMBL document CHEMBL1201862, “PubChem BioAssay data set” (2004)
# Values joined by “and” are separate entries in the source; they are usually repeats but may differ in a detail not shown here. Identical values can stand only once.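 Where inhibition never reached the appropriate level, the endpoint shown equals the highest concentration tested. Otherwise, values were interpolated linearly from a five-concentration, 48-hour dose response in 96-well plates. GI50 marks 50% less growth.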 Active and inactive are the calls of the source. Cut-off read from the data, not from the text of the source: active = GI50 up to about 1.1 µM and inactive = higher.
# Columns and labels:
# Assay in all cases: NCI anticancer screen, dose series, 48 h
# KM12 = system: KM12
# SK-MEL-5 = system: SK-MEL-5
# SR = system: SR
# U-251 = system: U-251
# NCI-H226 = system: NCI-H226
# SF-539 = system: SF-539
# RPMI-8226 = system: RPMI-8226
# UACC-257 = system: UACC-257
# NCI-H460 = system: NCI-H460
# A549 = system: A549
# SNB-75 = system: SNB-75
# 786-0 = system: 786-0
# K562 = system: K562
# SF-295 = system: SF-295
# HT-29 = system: HT-29
# CAKI-1 = system: CAKI-1
# HL-60 = system: HL-60
# Hs-578T = system: Hs-578T
# DU-145 = system: DU-145
# Malme-3M = system: Malme-3M
Compound,GI50 (KM12),GI50 (SK-MEL-5),GI50 (SR),GI50 (U-251),GI50 (NCI-H226),GI50 (SF-539),GI50 (RPMI-8226),GI50 (UACC-257),GI50 (NCI-H460),GI50 (A549),GI50 (SNB-75),GI50 (786-0),GI50 (K562),GI50 (SF-295),GI50 (HT-29),GI50 (CAKI-1),GI50 (HL-60),GI50 (Hs-578T),GI50 (DU-145),GI50 (Malme-3M)
Cc1cn(C2CCC(CO)(CF)O2)c(=O)[nH]c1=O (configuration not stated),> 100 µM (inactive),> 100 µM (inactive),> 100 µM (inactive),> 100 µM (inactive),> 100 µM (inactive),> 100 µM (inactive),> 100 µM (inactive),> 100 µM (inactive),> 100 µM (inactive),> 100 µM (inactive),> 100 µM (inactive) and 96.6 µM (inactive),> 100 µM (inactive),> 100 µM (inactive),> 100 µM (inactive),> 100 µM (inactive),> 100 µM (inactive),> 100 µM (inactive),> 100 µM (inactive),> 100 µM (inactive),
CC(=O)c1cccc(NC(=O)C(=O)C(c2cnc3ccc([N+](=O)[O-])cc3n2)[N+](=O)[O-])c1 (configuration not stated),54.1 µM (inactive),,52.1 µM (inactive),> 100 µM (inactive),> 100 µM (inactive),> 100 µM (inactive),> 100 µM (inactive),> 100 µM (inactive),> 100 µM (inactive),,> 100 µM (inactive),> 100 µM (inactive),> 100 µM (inactive),66.7 µM (inactive),> 100 µM (inactive),> 100 µM (inactive),37.9 µM (inactive),> 100 µM (inactive),> 100 µM (inactive),> 100 µM (inactive)
CNc1cccc2c1C(C)C[C@]1(C)C(=O)Nc3ccccc3[C@H]21 (some centres not stated),26.1 µM (inactive),43.8 µM (inactive),23.8 µM (inactive),,24.9 µM (inactive),42 µM (inactive),54.6 µM (inactive),13.4 µM (inactive),21.2 µM (inactive),20 µM (inactive),12.1 µM (inactive),17.9 µM (inactive),> 100 µM (inactive),17.7 µM (inactive),28 µM (inactive),26.5 µM (inactive),> 100 µM (inactive),27.7 µM (inactive),39.1 µM (inactive),19.5 µM (inactive)
CC(C)(C)OC(=O)N(CCNS(=O)(=O)c1cccc2cnccc12)CCC(=O)ON1C(=O)CCC1=O,,> 100 µM (inactive),> 100 µM (inactive),> 100 µM (inactive),> 100 µM (inactive),,> 100 µM (inactive),> 100 µM (inactive),51.9 µM (inactive),> 100 µM (inactive),> 100 µM (inactive),> 100 µM (inactive),> 100 µM (inactive),> 100 µM (inactive),> 100 µM (inactive),,,> 100 µM (inactive),> 100 µM (inactive),> 100 µM (inactive)
N#Cc1c(N)nc(-c2ccc(Cl)cc2)c2c1-c1ccccc1S(=O)(=O)CC2,> 100 µM (inactive),> 100 µM (inactive),56.4 µM (inactive),37.3 µM (inactive),> 100 µM (inactive),,> 100 µM (inactive),> 100 µM (inactive),45.1 µM (inactive),> 100 µM (inactive),> 100 µM (inactive),27.2 µM (inactive),> 100 µM (inactive),,> 100 µM (inactive),> 100 µM (inactive),,46.1 µM (inactive),74.5 µM (inactive),> 100 µM (inactive)
CCOC(=O)Oc1ccc2c(c1)c(=O)c1c(NCCCN(CC)CC)ccc3nnn2c31,0.982 µM (active),10.2 µM (inactive),1.57 µM (inactive),10.4 µM (inactive),7.18 µM (inactive),5.62 µM (inactive),2.17 µM (inactive),15.4 µM (inactive),0.337 µM (active),1.64 µM (inactive),,1.59 µM (inactive),5.13 µM (inactive),1.82 µM (inactive),2.55 µM (inactive),0.53 µM (active),,20.5 µM (inactive),0.951 µM (active),13.4 µM (inactive)
COc1cccc2c1C(=N)c1c(O)c3c(c(O)c1C2=O)C[C@@](O)(C(C)=O)C[C@@H]3OC1CC(N)C(O)C(C)O1 (some centres not stated),0.313 µM (active),0.196 µM (active),0.00466 µM (active),0.000228 µM (active),0.137 µM (active),0.00789 µM (active),0.000159 µM (active),,0.00573 µM (active),0.00832 µM (active),0.00764 µM (active),0.171 µM (active),0.000159 µM (active),0.000206 µM (active),0.4 µM (active),0.141 µM (active),,0.00123 µM (active),0.00386 µM (active),0.000721 µM (active)
COc1cc([C@@H]2c3cc4c(cc3C[C@H]3COC(=O)[C@@H]32)OCO4)cc2c1OCO2 [AUSTROBAILIGNAN 1],0.132 µM (active),< 0.01 µM (active),< 0.01 µM (active),< 0.01 µM (active),< 0.01 µM (active),< 0.01 µM (active),< 0.01 µM (active),,< 0.01 µM (active),< 0.01 µM (active),0.0278 µM (active),< 0.01 µM (active),,< 0.01 µM (active),< 0.01 µM (active),< 0.01 µM (active),,< 0.01 µM (active),< 0.01 µM (active),< 0.01 µM (active)
